Experiments:
human GR [1] = target: T1, human GR (Homo sapiens, UniProt P04150); assay: Trans-Activation Modulation of Glucocorticoid Receptor (GRAMMER), MMTV-LUC reporter gene; assay type: cell-based; parameters: endogenous in cells; conditions: for Emax: A549; for EC50: A549 cells, IP = inflection point
T1 sequence (P04150 1-777): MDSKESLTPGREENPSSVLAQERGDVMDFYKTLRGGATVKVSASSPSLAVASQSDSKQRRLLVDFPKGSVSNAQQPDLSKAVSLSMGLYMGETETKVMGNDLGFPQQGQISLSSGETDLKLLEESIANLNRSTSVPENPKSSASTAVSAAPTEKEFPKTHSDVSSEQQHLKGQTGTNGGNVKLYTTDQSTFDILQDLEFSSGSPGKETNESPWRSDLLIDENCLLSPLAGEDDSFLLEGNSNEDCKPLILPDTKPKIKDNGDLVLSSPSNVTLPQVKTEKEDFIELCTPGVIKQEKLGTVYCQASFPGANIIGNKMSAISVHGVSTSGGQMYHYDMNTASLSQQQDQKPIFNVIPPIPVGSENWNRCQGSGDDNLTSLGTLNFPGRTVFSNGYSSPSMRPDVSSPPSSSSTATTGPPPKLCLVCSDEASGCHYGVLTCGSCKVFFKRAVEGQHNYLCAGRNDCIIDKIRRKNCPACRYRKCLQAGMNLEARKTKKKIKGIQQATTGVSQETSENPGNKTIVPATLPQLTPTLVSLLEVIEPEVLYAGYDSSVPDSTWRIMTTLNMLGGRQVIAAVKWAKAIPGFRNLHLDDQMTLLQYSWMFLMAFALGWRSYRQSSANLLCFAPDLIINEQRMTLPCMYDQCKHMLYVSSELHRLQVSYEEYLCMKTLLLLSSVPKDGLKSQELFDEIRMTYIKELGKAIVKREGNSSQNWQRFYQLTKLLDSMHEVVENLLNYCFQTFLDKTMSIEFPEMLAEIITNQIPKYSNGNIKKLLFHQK
Text: Trans-Activation Modulation of Glucocorticoid Receptor (GRAMMER)
This assay assesses the ability of test compounds to control transcription from the MMTV-LUC reporter gene in lung adenocarcinoma A549 cells or HeLa cells, a human […] cell line that naturally expresses the human GR. The assay measures induction of a modified MMTV LTR/promoter linked to the LUC reporter gene.
The routine transient assay consists of plating 7,000-25,000 cells/well of a white, clear-bottom 96-well plate. Alternatively, 384-well plates can be used at a cell concentration of 10,000/well. The media that the cells are plated in is “exponential growth medium” which consists of phenol red-free RPMI1640 containing 10% FBS, 4 mM L-glutamine, 20 mM HEPES, 10 ug/mL human insulin, and 20 ug/mL gentamicin. Incubator conditions are 37° C. and 5% CO2. The transfection is done in batch mode. The cells are trypsinized and counted to the right cell number in the proper amount of fresh media. It is then gently mixed with the FuGene6/DNA mix and plated onto the 96 or 384-well plate, all the wells receive 100 uL or 40 uL, respectively, of medium+lipid/DNA complex then incubated 37° C. overnight. The transfection cocktail consists of serum-free OptiMEM, FuGene6 reagent and DNA. The manufacturer's (Roche Biochemical) protocol for cocktail setup is as follows: The lipid to DNA ratio is approximately 2.5:1 and the incubation time is 20 min at room temperature. Sixteen to 24 hours after transfection, the cells are treated with dexamethasone to a final concentration of 10 nM as well as the compound of interest, such that final DMSO (vehicle) concentration is equal to or less than 1%. Each plate also contains samples that are treated with 10 nM dexamethasone alone, which is used as the 100% activity control. The cells are exposed to the compounds for 24 hours. After 24 hours, the cells are lysed by a Promega cell culture lysis buffer for approximately 30 min and then the luciferase activity in the extracts is assayed in the 96-well format luminometer. In 384-well format, Steady-Glo (Promega) or Steady-Lite (PerkinElmer) can be used by adding an equal volume of reagent to the media present in each well. Activity induced by 10 nM dexamethasone alone is set at 100% activity. Antagonist activity is calculated by determining the decrease in dexamethasone-induced activity in response to compound treatment relative to samples that were treated with dexamethasone alone. […] This transactivation assay can be performed in an agonist and antagonist mode to identify these different activities. […]

human GR [2] = target: T1, human GR; assay: Transrepression Assay (GITAR), TNFα-β-lactamase reporter gene in U937 cells; assay type: cell-based; parameters: U937 cells contain an endogenous glucocorticoid receptor (GR); endogenous in cells; host or cells: U937 cells stably transfected with the TNF-α promoter/β-lactamase reporter only; conditions: for EC50: IP = inflection point; for GITAR > GRAMM % SEP: separation of GITAR Emax over GRAMMER Emax; for Emax: U-937
How it was run: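 Reporter readout used CCF2-AM loading for 70–90 min at room temperature after overnight (~18 h, 37 °C) PMA (5 ng/ml final) and LPS (100 ng/ml final) stimulation of compound-treated (30–45 min) TNFα-β-lactamase U937 cells expressing native GR. Activity was normalised to 100 nM dexamethasone repression.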

[3] = read-out: Transactivation A549 Cells GRAMMER Emax (%)
[4] = Table 1, read-out: Transactivation A549 Cells GRAMMER IP
[5] = Table 1, U937 cells, read-out: Transrepression U937 Cells GITAR IP
[6] = 100 nM dexamethasone = 100% activity, read-out: maximal activity in the transrepression assay
[7] = Table 1, U937 cells, activity repressed by 100 nM dexamethasone = 100%, read-out: Transrepression U937 Cells GITAR Emax (%)
[8] = read-out: Transactiviation A549 Cells GRAMMER Emax (%)
[9] = Table 2, read-out: Transactiviation A549 Cells GRAMMER IP
[10] = Table 2, U937 cells, read-out: Transactiviation U937 Cells GITAR IP
[11] = Table 2, U937 cells, activity repressed by 100 nM dexamethasone = 100%, read-out: Transactiviation U937 Cells GITAR Emax (%)

Work on CC(C)CNC(=O)c1ccccc1CC[C@]1(O)CCC2=Cc3c(cnn3-c3ccc(F)cc3)C[C@@]21C [Example 29, 2-{2-[(4αS,5R)-1-(4-fluorophenyl)-5-hydroxy-4α-methyl-1,4,4α,5,6,7-hexahydrocyclopenta[f]indazol-5-yl]ethyl}-N-isobutylbenzamide] yielded an Emax (human GR [1]; [3]) of 24%, an EC50 (human GR [1]; [4]) of 95 nM and an EC50 (human GR [2]; [5]) of 190 nM. For the same compound, the “GITAR > GRAMM % SEP” value (human GR [2]; Table 1) was 37%, the Emax (human GR [2]; [6]) was 5 to 100% and the Emax (human GR [2]; [7]) was 61%.

With CCCNC(=O)c1ccccc1CC[C@]1(O)CCC2=Cc3c(cnn3-c3ccc(F)cc3)C[C@@]21C [Example 30, 2-{2-[(4αS,5R)-1-(4-fluorophenyl)-5-hydroxy-4α-methyl-1,4,4α,5,6,7-hexahydrocyclopenta[f]indazol-5-yl]ethyl}-N-propylbenzamide] the Emax (human GR [1]; [3]) was 29%, the EC50 (human GR [1]; [4]) was 81 nM and the EC50 (human GR [2]; [5]) was 127 nM. The “GITAR > GRAMM % SEP” value (human GR [2]; Table 1) was 21%, the Emax (human GR [2]; [6]) was 5 to 100% and the Emax (human GR [2]; [7]) was 50%.

Work on CC(CNC(=O)c1ccccc1CC[C@]1(O)CCC2=Cc3c(cnn3-c3ccc(F)cc3)C[C@@]21C)C(F)(F)F (stereo partly drawn) [Example 31, 2-{2-[(4αS,5R)-1-(4-fluorophenyl)-5-hydroxy-4α-methyl-1,4,4α,5,6,7-hexahydrocyclopenta[f]indazol-5-yl]ethyl}-N-(3,3,3-trifluoro-2-methylpropyl)benzamide] yielded an Emax (human GR [1]; [3]) of 9%, an EC50 (human GR [1]; [4]) of 93 nM and an EC50 (human GR [2]; [5]) of 183 nM. For the same compound, the “GITAR > GRAMM % SEP” value (human GR [2]; Table 1) was 39%, the Emax (human GR [2]; [6]) was 5 to 100% and the Emax (human GR [2]; [7]) was 48%.

Work on C=C(C)CNC(=O)c1ccccc1CC[C@]1(O)CCC2=Cc3c(cnn3-c3ccc(F)cc3)C[C@@]21C [Example 32, 2-{2-[(4αS,5R)-1-(4-fluorophenyl)-5-hydroxy-4α-methyl-1,4,4α,5,6,7-hexahydrocyclopenta[f]indazol-5-yl]ethyl}-N-(2-methylprop-2-en-1-yl)benzamide] yielded an Emax (human GR [1]; [3]) of 13%, an EC50 (human GR [1]; [4]) of 134 nM and an EC50 (human GR [2]; [5]) of 277 nM. For the same compound, the “GITAR > GRAMM % SEP” value (human GR [2]; Table 1) was 36%, the Emax (human GR [2]; [6]) was 5 to 100% and the Emax (human GR [2]; [7]) was 49%.

With C=CCNC(=O)c1ccccc1CC[C@]1(O)CCC2=Cc3c(cnn3-c3ccc(F)cc3)C[C@@]21C [Example 33, N-allyl-2-{2-[(4αS,5R)-1-(4-fluorophenyl)-5-hydroxy-4α-methyl-1,4,4α,5,6,7-hexahydrocyclopenta[f]indazol-5-yl]ethyl}benzamide] the Emax (human GR [1]; [3]) was 37%, the EC50 (human GR [1]; [4]) was 62 nM and the EC50 (human GR [2]; [5]) was 123 nM. The “GITAR > GRAMM % SEP” value (human GR [2]; Table 1) was 25%, the Emax (human GR [2]; [6]) was 5 to 100% and the Emax (human GR [2]; [7]) was 62%.

CC1(NC(=O)c2ccccc2CC[C@]2(O)CCC3=Cc4c(cnn4-c4ccccc4)C[C@@]32C)CC1 [Example 34, 2-{2-[(4αS,5R)-5-hydroxy-4α-methyl-1-phenyl-1,4,4α,5,6,7-hexahydrocyclopenta[f]indazol-5-yl]ethyl}-N-(1-methylcyclopropyl)benzamide] was tested, and the Emax (human GR [1]; [3]) was 13%, the EC50 (human GR [1]; [4]) was 128 nM and the EC50 (human GR [2]; [5]) was 208 nM. The “GITAR > GRAMM % SEP” value (human GR [2]; Table 1) was 41%, the Emax (human GR [2]; [6]) was 5 to 100% and the Emax (human GR [2]; [7]) was 54%.

CC(C)NC(=O)c1ccccc1CC[C@]1(O)CCC2=Cc3c(cnn3-c3ccc(F)cc3)C[C@@]21C [Example 35, 2-{2-[(4αS,5R)-1-(4-fluorophenyl)-5-hydroxy-4α-methyl-1,4,4α,5,6,7-hexahydrocyclopenta[f]indazol-5-yl]ethyl}-N-isopropylbenzamide] showed an Emax (human GR [1]; [3]) of 48%, an EC50 (human GR [1]; [4]) of 60 nM and an EC50 (human GR [2]; [5]) of 170 nM. The “GITAR > GRAMM % SEP” value (human GR [2]; Table 1) was 14%, the Emax (human GR [2]; [6]) was 5 to 100% and the Emax (human GR [2]; [7]) was 62%.

C[C@]12Cc3cnn(-c4ccc(F)cc4)c3C=C1CC[C@@]2(O)CCc1ccccc1C(=O)NCC1CC1 [Example 37, N-(cyclopropylmethyl)-2-{2-[(4αS,5R)-1-(4-fluorophenyl)-5-hydroxy-4α-methyl-1,4,4α,5,6,7-hexahydrocyclopenta[r]indazol-5-yl]ethyl}benzamide] was tested, and the Emax (human GR [1]; [3]) was 57%, the EC50 (human GR [1]; [4]) was 65 nM and the EC50 (human GR [2]; [5]) was 81 nM. The “GITAR > GRAMM % SEP” value (human GR [2]; Table 1) was 1%, the Emax (human GR [2]; [6]) was 5 to 100% and the Emax (human GR [2]; [7]) was 58%.

CC(CNC(=O)c1c(F)cccc1CC[C@]1(O)CCC2=Cc3c(cnn3-c3ccc(F)cc3)C[C@@]21C)C(F)(F)F (stereo partly drawn) [Example 38, 2-fluoro-6-{2-[(4αS,5R)-1-(4-fluorophenyl)-5-hydroxy-4α-methyl-1,4,4α,5,6,7-hexahydrocyclopenta[f]indazol-5-yl]ethyl}-N-(3,3,3-trifluoro-2-methylpropyl)benzamide] was tested, and the Emax (human GR [1]; [3]) was 15%, the EC50 (human GR [1]; [4]) was 91 nM and the EC50 (human GR [2]; [5]) was 152 nM. The “GITAR > GRAMM % SEP” value (human GR [2]; Table 1) was 44%, the Emax (human GR [2]; [6]) was 5 to 100% and the Emax (human GR [2]; [7]) was 58%.

C[C@]12Cc3cnn(-c4ccc(F)cc4)c3C=C1CC[C@@]2(O)CCc1ccccc1Cl [Example 40 WO 2004/075840 A2, reference compound] was tested, and the Emax (human GR [1]; [8]) was 98%, the EC50 (human GR [1]; [9]) was 162 nM and the EC50 (human GR [2]; [10]) was 212 nM. For the same compound, the “GITAR > GRAMM % SEP” value (human GR [2]; Table 2) was −7% and the Emax (human GR [2]; [11]) was 91%.

C[C@]12Cc3cnn(-c4ccc(F)cc4)c3C=C1CC[C@@]2(O)CCc1ccccc1C(=O)N1CCC1 [Example 40, (4αS,5R)-5-{2-[2-(azetidin-1-ylcarbonyl)phenyl]ethyl}-1-(4-fluorophenyl)-4α-methyl-1,4,4α,5,6,7-hexahydrocyclopenta[f]indazol-5-ol] gave an Emax (human GR [1]; [3]) of 46%, an EC50 (human GR [1]; [4]) of 231 nM and an EC50 (human GR [2]; [5]) of 246 nM. For the same compound, the “GITAR > GRAMM % SEP” value (human GR [2]; Table 1) was 17%, the Emax (human GR [2]; [6]) was 5 to 100% and the Emax (human GR [2]; [7]) was 64%.

Compound C[C@]12Cc3cnn(-c4ccc(F)cc4)c3C=C1CCC[C@@]2(O)CCc1ccccc1Cl [Example 41 WO 2004/075840 A2, reference compound] has an Emax (human GR [1]; [8]) of 92%, an EC50 (human GR [1]; [9]) of 123 nM and an EC50 (human GR [2]; [10]) of 270 nM. The “GITAR > GRAMM % SEP” value (human GR [2]; Table 2) was −3% and the Emax (human GR [2]; [11]) was 88%.

For COC(=O)C(C)(C)NC(=O)c1c(F)cccc1CC[C@]1(O)CCC2=Cc3c(cnn3-c3ccc(F)cc3)C[C@@]21C [Example 41, methyl N-(2-fluoro-6-{2-[(4αS,5R)-1-(4-fluorophenyl)-5-hydroxy-4α-methyl-1,4,4α,5,6,7-hexahydrocyclopenta[f]indazol-5-yl]ethyl}benzoyl)-2-methylalaninate], the Emax (human GR [1]; [3]) was 18%, the EC50 (human GR [1]; [4]) was 46 nM and the EC50 (human GR [2]; [5]) was 115 nM. The “GITAR > GRAMM % SEP” value (human GR [2]; Table 1) was 44%, the Emax (human GR [2]; [6]) was 5 to 100% and the Emax (human GR [2]; [7]) was 62%.
